Measured values reported in patent publication US4313944A, “Cycloheptindoles, compositions and use” (Roussel Uclaf, priority 1980, dated 1982).
Where a name gives a salt, the structure may show the parent alone.

What was measured:
male mice = experiment: Hypobare anoxia study; type: in vivo; settings: oral, 30 minutes before test, 90 mm Hg
Method: Groups of 10 male mice weighing about 20 to 22 g were not fed for 5 hours and were placed in a hermetically sealed enclosure with a pressure of 90 mm Hg maintained by a pump to determine the time of their survival. […] The results of Table II show the increase of survival time expressed as a percentage of control animals.

mice = experiment: Acute toxicity; type: in vivo; settings: oral, maximum dose which did not cause mortality
[1] = test system: nigrostriatal dopaminergic bundle (6-hydroxydopamine unilateral lesion); experiment: Rotation behavior after unilateral injury of nigrostriatal bundle; type: in vivo, male rats; settings: rats, intraperitoneal
Method: A. Rotation behavior after unilateral injury of nigrostriatal bundle
The unilateral lesion was effected with male rats weighing about 220 g by unilateral injection into nigrostriatal dopaminergic bundle of 8 μg of 6-hydroxydopamine in a solution of 2 μg per μl by the method of Ungerstedt [Acta. Physiol. Scand., Vol. 82 (1971), supp. 367, p. 69-93]. In the animals, the direct dopaminergic agonists such as apomorphine administered generally induces a rotating behavior in the contralateral direction to the injured side. The test compounds were administered more than 5 weeks after the lesion and the rats were placed in an automatic rotometer which determine the number of rotations effected by each animal in 2 directions.
The products of Examples 1, 2 and 3 were intraperitoneally administered and the product of Example 1 provoked 337±99 contralateral rotations at a dose of 5 mg/kg, product of Example 2 provoked 364±50 contralateral rotations at a dose of 1 mg/kg and the product of Example 3 provoked 657±205 contralateral rotations at a dose of 0.1 mg/kg.

dopaminergic receptors = biological target: T1, dopaminergic receptors (Rattus norvegicus, UniProt P61169); experiment: Affinity for dopaminergic receptors (inhibition of spiroperidol 3H fixation); type: binding; settings: for fixation to dopaminergic receptors (in words): results of Table I; for IC50: spiroperidol 3H, rat striated bodies, 37° C., pH 7.3, 20 minutes, read-out: 50% inhibiting concentration
T1 construct: from tissue; host or cells: rat striatum (striated bodies), crude membrane preparation
T1 sequence (P61169 whole entry): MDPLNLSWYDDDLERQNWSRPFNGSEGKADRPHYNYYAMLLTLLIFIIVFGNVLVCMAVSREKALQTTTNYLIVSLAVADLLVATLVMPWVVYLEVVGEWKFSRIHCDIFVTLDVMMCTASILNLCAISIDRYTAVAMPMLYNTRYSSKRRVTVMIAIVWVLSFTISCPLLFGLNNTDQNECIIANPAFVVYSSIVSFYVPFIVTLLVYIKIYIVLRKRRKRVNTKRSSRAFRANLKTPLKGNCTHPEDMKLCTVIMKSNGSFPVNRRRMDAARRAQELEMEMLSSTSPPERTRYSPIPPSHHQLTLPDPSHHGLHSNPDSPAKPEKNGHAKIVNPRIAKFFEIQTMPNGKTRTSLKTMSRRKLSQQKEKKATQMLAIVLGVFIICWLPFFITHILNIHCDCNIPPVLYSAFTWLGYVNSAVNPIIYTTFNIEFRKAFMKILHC
Method: B. Affinity for dopaminergic receptors
The striated bodies taken from the brains of 6 male rats weighing about 150 g were homogenized at one 20th (weight/volume) in 0.32 M sucrose and the homogenized mixture was centrifuged at 1000 g for 10 minutes at 0° C., the surnageant was centrifuged at 30,000 g for 15 minutes at 4° C. The culot was taken up in 25 ml of buffered Tris HCl 50 mM with a pH of 7.7 and the mixture was centrifuged at 30,000 g for 15 minutes at 4° C. The new culot was taken up in 50 ml of buffered Krebs Tris HCl with a pH of 7.3 and the suspension was preincubated at 37° C. for 10 minutes and was then incubated for 20 minutes in a water bath at 37° C. in the presence of spiroperidol 3H, alone or with an excess of haloperidol or with increasing units of the product being tested. The incubated suspensions were filtered with Whatman GF/C and the filters were washed 3 times with 5 ml of buffered Tris HCl 50 mM. The radioactivity of the filters was measured by liquid scintillation and the curve of percentage of fixation of spiroperidol 3H as a function of concentration of test product was determined.

[2] = test system: ulcers in the stomachs of rats; experiment: Antiulcerous activity (Shay ulcers by ligature of pylore); type: in vivo; settings: oral, about 16 hours after treatment
Description: The technique used is described by Shay et al [Gastroenterology, Vol. 5 (1945), p. 43]. Ulcers were induced in the stomachs of rats by ligature of pylore. The animals were anesthesized with ether and a longitudinal incision of about 1 cm was made beneath the sternum, the glandular part of the stomach and the duodenum were taken out and a ligature was placed a few mm below the pylore. The muscular surface was left as it was and the skin was sutured by 2 clamps.
The animals received orally immediately after a dispersive or the test product in a volume of 0.5 ml/100 g and were kept without food or water until they were killed by carotidinal bleeding which was about 16 hours after treatment. Before removal of the stomach, a ligature was placed above the […]. The gastric liquid was collected to measure the pH and the stomach was then opened by a large curve, was rinsed with physiological serum and was spead out on millimetric paper for examination with a binocular lens. The gravity of the lesions was macroscopically evaluated on a scale of 0 to 4 for each stomach to determine for each group of rats the average intensity of ulcerations.

Compound | % of increase of survival time (male mice; dose 5 mg/kg) | % of increase of survival time (male mice; dose 25 mg/kg) | DL0 (mice) | fixation to dopaminergic receptors (in words) (dopaminergic receptors) | IC50 (dopaminergic receptors) | other results
CN1CCO[C@@H]2c3cccc4[nH]cc(c34)CC[C@H]21 (relative stereo) [Example 2, (7a-R,S-trans) 8-methyl-4,6,7,7a,8,9,10,11a-octahydro-[1,4]-oxazino-[2',3'-4,5]cyclohept[1,2,3-c,d]indole hydrochloride] | 30% | 64% | 100 mg/kg | do fix dopaminergic receptors | 950 nM | contralateral rotations ([1]; 1 mg/kg): 364±50 contralateral rotations
c1cc2c3c(c[nH]c3c1)CC[C@H]1NCCO[C@H]21 (relative stereo) [Example 1, (7a R,S-trans)-4,6,7,7a,8,9,10,11a-octahydro-[1,4]-oxazino [2',3'-4,5]-cyclohept[1,2,3-c,d]-indole hydrochloride] |  |  | 200 mg/kg | do fix dopaminergic receptors | 10000 nM | % of increase of survival time (male mice; dose 2 mg/kg): 14%; % of increase of survival time (male mice; dose 10 mg/kg): 51%; % of increase of survival time (male mice; dose 50 mg/kg): 145%; contralateral rotations ([1]; 5 mg/kg): 337±99 contralateral rotations
CCCN1CCO[C@@H]2c3cccc4[nH]c(Br)c(c34)CC[C@H]21 (relative stereo) [Example 4, (7a-R,S-trans) 5-bromo-4,6,7,7a,8,9,10,11a-octahydro-8-propyl-[1,4]-oxazino-[2',3'-4,5]cyclohept[1,2,3-c,d]indole hydrochloride] |  |  | > 1000 mg/kg |  |  | 
CCCN1CCO[C@@H]2c3cccc4c3c(cn4C)CC[C@H]21 (relative stereo) [Example 5, (7a-R,S-trans) 4,6,7,7a,8,9,10,11a-octahydro-4-methyl-8-propyl-[1,4]-oxazino-[2',3'-4,5]cyclohept[1,2,3-c,d]indole hydrochloride] |  |  | 200 mg/kg |  |  | 
CCCN1CCO[C@@H]2c3cccc4[nH]cc(c34)CC[C@H]21 (relative stereo) [Example 3, (7a-R,S-trans)-4,6,7,7a,8,9,10,11a-octahydro-8-propyl-[1,4]-oxazino-[2',3'-4,5]cyclohept[1,2,3-c,d]indole hydrochloride] | 102% | 86% | 100 mg/kg | do fix dopaminergic receptors | 270 nM | % of increase of survival time (male mice; dose 1 mg/kg): 3%; contralateral rotations ([1]; 0.1 mg/kg): 657±205 contralateral rotations; % protection against ulceration ([2]; dose 5 mg/kg): 51%; % protection against ulceration ([2]; dose 25 mg/kg): 73%
